Reference: US20260294836A1, “REMOTE CONTROL AND QUANTITATIVE MONITORING OF DRUG RELEASE FROM NANOPARTICLES BASED ON MAGNETIC PARTICLE IMAGING” (Board of Trustees of Michigan State University, priority 2022, published 2026)

Legend:
Format in all cases: in vivo, Balb/c mice
F4/80-positive TAM = test: F4/80 immunostaining of tumor sections (TAM accumulation); details: without NIR
Procedure: (§1) The 4T1 tumor-bearing Balb/c mice may be randomly divided into six groups. In at least one example embodiment, each group may include three mice. In at least one example embodiment, a first group may receive PLGA. In at least one example embodiment, a second group may receive SPNCD. In at least one example embodiment, a third group may receive SPNCD and may be irradiated with NIR for 1 minute. In at least one example embodiment, a fourth group may receive SPNCD and may be irradiated with NIR for 7 minutes. In at least one example embodiment, a fifth group may receive SPNC and may be irradiated with NIR for 1 minute. In at least one example embodiment, a sixth group may receive DOX.
(§2) Once tumor volumes reach or become greater than 100 mm^3, the mice may be intratumorally injected with the various conditions (e.g., PLGA in the instance of the first group, SPNCD in the instance of the second group, SPNCD+NIR-1 minute in the instance of the third group, SPNCD+NIR-7 minute in the instances of the fourth group, SPNC+NIR-1 minute in the instance of the fifth group, and DOX in the instance of the sixth group) every 2 days for 15 days. Tumor size and mouse body weight may be measured every 2 days for 15 days in total. […]

4T1 tumor [1] = test: Short-term tumor inhibition (BLI, tumor size, 15 days); details: DOX alone
Procedure: as §1, §2

4T1 tumor [2] = test: Long-term tumor inhibition and metastasis, 4T1 tumor mice; details: DOX alone; PBS 30 days
Procedure: The 4T1 cells may be implanted into the mammary fat pads of six-week-old female Balb/c mice. In at least one example embodiment, about 1×10^6 cells may be implanted per mouse.
4T1 tumor-bearing Balb/c mice and BT549 tumor-bearing Nude mice ay be randomly divided into three groups. In at least one example embodiment, each group may include eight mice (PBS, SPNCD+NIR 7 min, DOX). Once tumor volumes reach or become greater than 100 mm^3, 4T1 tumor-bearing mice (DOX: 0.122 mg/kg) and BT549 tumor-bearing mice (DOX: 1.5 mg/kg) may be intratumorally injected with agents from the various conditions every 2 days for 15 days followed by NIR irradiation (808 nm, 1W). In at least one example embodiment, the DOX dose may be determined based on the IC50 of each cell line. Tumor size and mouse weight may be measured every 3 days for 80 days in total. Bioluminescence imaging (e.g., PerkinElmer, USA) may be conducted every 3 days by intraperitoneally injected D luciferin (e.g., 150 mg/kg) into 4T1 tumor-bearing Balb/c mice to observe the metastasis of 4T1 tumor-bearing Balb/c mice.
Tumor growth, mouse bodyweight, and tumor metastasis may be monitored for 80 days in 4T1 DOX-sensitive and BT459 DOX-resistant tumor mice. The mice may be randomly divided into four groups. In at least one example embodiment, each group may include five mice. […]

4T1 tumor [3] = test: Apoptosis in tumors (flow cytometry and TUNNEL assay); details: no NIR
Procedure: as §1, §2

**Q.** For `COc1cccc2c1C(=O)c1c(O)c3c(c(O)c1C2=O)C[C@@](O)(C(=O)CO)C[C@@H]3O[C@H]1C[C@H](N)[C@H](O)[C@H](C)O1` [DOX, doxorubicin], which “F4/80-positive TAM accumulation versus PLGA treated groups” value (F4/80-positive TAM) is on record?
**A.** The value was “increased more”.

**Q.** What about the tumor size (4T1 tumor [1]) of the same molecule?
**A.** The tumor size was “did not increase in size”.

**Q.** And the time-to-tumor metastasis (4T1 tumor [2])?
**A.** The time-to-tumor metastasis was 60 days post injection.

**Q.** And the apoptosis in tumor (4T1 tumor [3])?
**A.** Its apoptosis in tumor is “induced significant apoptosis”.
